In patent US11426375B2, “Substituted bisphenyl butanoic ester derivatives as NEP inhibitors” (NOVARTIS AG, priority 2019, dated 2022):
Like-named read-outs stand apart in the source and are kept apart here.

Columns and labels:
[1] = assay type: physicochemical; settings: for degradation in solution: 1 day
Procedure: It was stable at pH of 4.7 and pH of 6.8 up to 70° C. for 3 days.

[2] = design: species or system Cynomolgus Monkeys; settings: cynomolgus monkey, in vivo, po, 10 mg/kg
Procedure: A cross-over study design consisting of two groups with two animals per group was conducted to examine the pharmacokinetic properties of compound I-1 of the present disclosure.
Compound I-1 and AHU377 were administered to each group as follows: compound I-1 on Day 0 followed by AHU377 on Day 2 (Group 1), AHU377 on Day 0 followed by compound I-1 on Day 2 (Group 2). Each animal received a single 10 mg/kg (5 ml/kg) oral gavage dose of the specified study drug on the specified day. The animals were 2.5 to 3.5 years of age and weighed between 3.1 and 4.3 kg at the beginning of the study. Both compounds were formulated in 0.5% methylcellulose (400 cp) and 0.1% Tween 80 (w,v) in water. Blood samples for pharmacokinetics analysis were collected at t=0, 0.25, 0.5, 1, 2, 4, 8, 24 and 48 hours post dose on Day 0 and Day 2. Plasma was prepared by collecting whole blood samples into tubes containing K2EDTA and NaF (final concentrations: ˜1 mg/mL (K2EDTA) and ˜2 mg/mL (NaF)). These tubes were kept in an ice bath prior to centrifugation at approximately 2,000 rcf for 10 minutes at approximately 5° C. To each resultant plasma sample (target volume 200 μL), 4 μL of 50% phosphoric acid (v/v) was added.
(§1) [^13C4]-LBQ657 was added as an internal standard to the pharmacokinetic (PK) samples and calibration standards prior to analysis by LC-MS/MS. The LC-MS system consisted of an API6500+ mass spectrometer coupled to an Agilent 1290 HPLC system equipped with a CTC Pal autosampler. The mass spectrometer was operated in the positive ion mode.

[3] = Hygroscopicity, weight gain at 90% RH; assay type: physicochemical; settings: after exposure to 90% RH
Excerpt: The weight gain of compound I-1 after exposure to 90% RH (relatively humidity) was 0.34%, while that of AHU377 under the same conditions was 3.4%. […] On the other hand, AHU377 is a wax-like solid, which needs to be properly processed before further pharmaceutical processing such as weighing, dispensing and filling.

[4] = design: species or system Sprague Dawley rats; settings: rat, in vivo, po, 10 mg/kg; for LBQ657 concentration-time profile / conversion to LBQ657: male, Sprague-Dawley
Procedure: A parallel study design consisting of four groups with three animals per group was conducted to examine the pharmacokinetic properties of the compounds of the present disclosure.
The drugs were administered to each group are as follows: compound I-1 (Group 1), compound I-2 (Group 2), compound I-3 (Group 3), and AHU377 (sacubitril) (Group 4). Each animal received a single 10 mg/kg (5 ml/kg) oral gavage dose of the specified study drug. The animal weights ranged from […] at the beginning of the study. Compound I-1, compound I-2, compound I-3, and AHU377 were formulated in 0.5% methylcellulose (400 cp) and 0.1% Tween 80 (w,v) in water was used as the vehicle. Water bath sonication was applied to facilitate dispersing for all four study drugs. Blood samples for pharmacokinetics analysis were collected at t=0.25, 0.5, 1, 2, 4, 8, and 24 hours (±5%) post dose administration. Plasma was prepared by collecting whole blood samples into tubes containing EDTA and NaF (final concentrations: ˜1 mg/mL (K2EDTA) and ˜2 mg/mL (NaF)). These tubes were kept in an ice bath prior to centrifugation at approximately 2,000 rcf for 10 minutes at approximately 5° C. To each resultant plasma sample, 50% phosphoric acid (v/v) was added to achieve a final concentration of 1% (v,v).
as §1, with “mode with a TESI ion source.” for “mode.”

[5] = Aqueous solubility by visual observation; assay type: physicochemical; settings: water; based on visual observation
Procedure: The solubility value was more than about 500 mg/ml based on visual observation.

| SMILES | degradation in solution ([1]; pH 2) [%] | degradation in solution ([1]; pH 4.7) [%] | solution stability under acidic conditions ([1]; pH 2) | tolerability [2] | weight gain (hygroscopicity) [3] [%] | tolerability [4] | LBQ657 concentration-time profile [4] | conversion to LBQ657 [4] | solubility [5] [mg/mL] |
| --- | --- | --- | --- | --- | --- | --- | --- | --- | --- |
| CCOC(=O)[C@H](C)C[C@@H](Cc1ccc(-c2ccccc2)cc1)NC(=O)CCC(=O)O [AHU377, 4-(((2S,4R)-1-([1,1′-biphenyl]-4-yl)-5-ethoxy-4-methyl-5-oxopentan-2-yl)amino)-4-oxobutanoic acid] | 21.49 | 2.63 | unstable | well tolerated | 3.4 | very well tolerated |  |  |  |
| CCOC(=O)[C@H](C)C[C@@H](Cc1ccc(-c2ccccc2)cc1)NC(=O)CCC(=O)N[C@@H](CCCCN)C(=O)O [Compound I-2, (4-(((2S,4R)-1-([1,1′-biphenyl]-4-yl)-5-ethoxy-4-methyl-5-oxopentan-2-yl)amino)-4-oxobutanoyl)-L-lysine] |  |  |  |  |  | very well tolerated | flattened relative to AHU377 | nearly complete conversion to LBQ657 | > 500 |
| CCOC(=O)[C@H](C)C[C@@H](Cc1ccc(-c2ccccc2)cc1)NC(=O)CCC(=O)N[C@@H](CCCCN)C(=O)OC(C)(C)C [Compound I-3, Tert-butyl (4-(((2S,4R)-1-([1,1′-biphenyl]-4-yl)-5-ethoxy-4-methyl-5-oxopentan-2-yl)amino)-4-oxobutanoyl)-L-lysinate] |  |  |  |  |  | very well tolerated | flattened relative to AHU377 | nearly complete conversion to LBQ657 |  |
